Laboratory results reported in patent US20140141137A1, “Encapsulated Antimicrobial Material” (Danisco A/S, priority 2012, published 2014).

Key:
[1] = test system: common food spoilage yeasts and moulds; conditions: cited from earlier work
yeast = assay: Leavening of bread dough containing natamycin; type: cell-based; conditions: 12 ppm on flour weight; about 50 minutes, 85% relative humidity, 40° C.
Experimental: (§1) A bread is made by preparing a dough containing flour, water, yeast, salt and a dough conditioner. Included in the dough mix is either natamycin or encapsulated natamycin or neither. […] All ingredients are mixed together thoroughly for between 3 and 10 minutes.
The dough is then given a short resting period after mixing (approx. 5 to 10 minutes) followed by scaling at the required weight. A second rest period is then applied following a second moulding in shape the dough as desired. The dough is then placed into a tin or tray. A leavening period for about 50 minutes at 85% relative humidity at 40° C. then follows.

moulds = assay: Mould spoilage of sliced bread over shelf life; type: cell-based; conditions: 12 ppm on flour weight; normal shelf life period
Experimental: as §1
When the bread is cool, the natamycin content in the bread is assayed. The natamycin content from bread containing encapsulated natamycin is higher than that in the bread containing unencapsulated natamycin, indicating the heat protective benefit of encapsulated natamycin. The bread is then sliced and observed over the normal shelf life period for growth of moulds.

[2] = reportedly; or more; cited from earlier work
[3] = Davies et al. 1998; cited from earlier work

Row | Compound | Concentrations inhibiting most strains [1] | Leavening of bread dough (yeast) | Mould spoilage / extension of shelf life of sliced bread (moulds) | Effective levels to preserve foodstuffs [2] | pH of optimum stability [3]
1 | C[C@@H]1C/C=C/C=C/C=C/C=C/[C@H](O[C@@H]2O[C@H](C)[C@@H](O)[C@H](N)[C@@H]2O)C[C@@H]2O[C@](O)(C[C@@H](O)C[C@H]3O[C@@H]3/C=C/C(=O)O1)C[C@H](O)[C@H]2C(=O)O [natamycin] | 1-15 ppm | poor leavening | Delay of mould spoilage is observed | – | –
2 | nisin (ITSISLCTPGCKTGALMGCNMKTATCHCSIHVSK; Lantibiotic nisin-A; UniProt P13068 24-57, looked up) [polypeptide bacteriocin produced by the lactic acid bacteria, Lactococcus lactis subsp. lactis] | – | – | – | 25-500 IU/g | 3
